Experimental data reported in US20230293530A1, “AGENTS FOR SENSITIZING SOLID TUMORS TO TREATMENT” (Yeda Research and Development Co. Ltd., priority 2020, published 2023).

Legend:
4T1 breast cancer cells = experiment: Syngeneic mouse breast cancer model, 4T1 cells pre-treated in vitro with mizoribine; format: in vivo, BALB/c female mice
From the text: C) ASS1 mRNA expression levels and NDNO scores are associated with non-response to anti-PD1 therapy in non-small cell lung cancer (NSCLC) (7 responders and 14 nonresponders). D) Proteomic-based NDNO scores associate with lower hydrophobicity of peptide repertoire (Wilcoxon ranksum P<0.05) in a (CPTAC3) lung adenocarcinoma cohort. NDNO scores were used to determine the top tertile (red; n=36) and bottom tertile (blue; n=36); Proteomic NDNO scores denote the ratio of NNDO scores of the tumor vs the matched normal sample (Methods). Hydrophobicity scores were determined by R library Peptides using the metric from Janin et al^2, where the hydrophobicity of each sample’s peptide repertoire denotes the mean hydrophobicity of all its peptides (Methods). E) 4T1 breast cancer cells were treated with 300 µM mizoribine for 24 hours and analysed by western for LMP-7 immunoproteasome (Left panel). Quantification of the western is shown on the right panel. […] Tumor size was calliper-measured on the designated days (upper panel) and at sacrifice on day 14 (lower panel, p = 0.0476 using student’s t-test). […] Human IFNγ was measured using ELISA in wells containing cultured CD8+T-cells and PDX explants from two patients (Pat#1, LEP 19 and Pat#2, LEP 20) with metastatic NSCLC on responsive to anti-PD1. […]

[1] = test system: NSCLC PDX explants with autologous CD8+ T cells; experiment: Co-culture of NSCLC PDX tumor explants with autologous CD8+ T cells, IFNγ ELISA; format: cell-based, human
From the text: Two patients bearing metastatic non-small cell lung cancer (NSCLC) were included in this study. Blood samples and fresh tumor tissue samples were procured just after their biopsy with patient consent and with Helsinki approval (number 0093-19-SOR). The samples were placed in serum free DMEM (Gibco) media then processed for implantation in NSG (NOD scid gamma) mice. Tumor tissue samples were implanted subcutaneously in dorsal flanks of the mice to form patient-derived xenografts (PDXs). All animal experiments were done under Institutional Animal Care and Use Committee (IACUC) of Ben-Gurion University of the Negev (BGU’s IACUC) according to specified protocols aiming to ensure animal welfare and reduce su □ ering. The Animal ethical clearance protocol number used for this research is IL-80-12-2015. After isolation of peripheral blood mononuclear cells (PBMCs) from the peripheral blood of the patients according to standard protocol using Lymphocyte Separation Medium (LSM, MP Biomedicals, SKU 0850494-CF), CD8^+ T cells were isolated from PBMCs by employing human CD8 Microbeads (Miltenyi Biotec, 130-045-201), LS column (Miltenyi Biotec, 130-042-401) and MidiMACS Separator (130-042-302) following manufacturer’s protocol. For culturing and maintenance of CD8 T cells, RPMI containing 10% human male AB plasma (Sigma, H4522), 1 mM sodium pyruvate, 2 mM L-glutamine, 0.1 mM MEM non-essential amino acids, 1% penicillin/streptomycin, 10 mM HEPES (Life Technologies), 200 IU/mL recombinant human IL-2 (PeproTech) and 50 ng/mL anti-human CD3 Antibody (BioLegend, 317302) were used for the first 48 hrs followed by culturing and passaging in media containing 200 IU/mL of IL-2.
2×2×2 mm^3 tumor tissue explants were cut from PDXs with a specific tissue cutter and seeded singly in 48 well flat-bottom plates and incubated with either mizoribine (0.3 mM) in 400 µl of media or with only media for 10 hrs. Then, explants were washed once and transferred into new 48 well flat-bottom plates containing 2×10^5 CD8+T cells/well along with nivolumab (Opdivo, 20 µg/mL), pembrolizumab (Keytruda, 20 µg/mL) or mock solventin fresh 400 µl RPMI containing 20 IU/ml ofIL-2. After 18 hours of incubation, the supernatant was collected from the wells and then assayed for standard IFNγ ELISA assay (ELISA MAX, Biolegend) according to manufacturer’s instructions.
Two patients bearing metastatic non-small cell lung cancer (NSCLC) were included in this study. Blood samples and fresh tumor tissue samples were procured just after their biopsy with patient consent and with Helsinki approval (number 0093-19-SOR). The samples were placed in serum free DMEM (Gibco) media then processed for implantation in NSG (NOD scid gamma) mice (NOD.Cg-Prkdcscid Il2rgtm1Wjl, The Jackson Laboratory). Tumor tissue samples were implanted subcutaneously in dorsal flanks of the 7-9 weeks old male mice to form patient-derived xenografts (PDXs).
After isolation of peripheral blood mononuclear cells (PBMCs) from the peripheral blood of the patients according to standard protocol using Lymphocyte Separation Medium (LSM, MP Biomedicals, SKU 0850494-CF), CD8^+ T cells were isolated from PBMCs by employing human CD8 Microbeads (Miltenyi Biotec, 130-045-201), LS column (Miltenyi Biotec, 130-042-401) and MidiMACS Separator (130-042-302) following manufacturer’s protocol. For culturing and maintenance of CD8 T cells, RPMI containing 10% human male AB plasma (Sigma, H4522), 1 mM sodium pyruvate, 2 mM L-glutamine, 0.1 mM MEM non-essential amino acids, 1% penicillin/streptomycin, 10 mM HEPES (Life Technologies), 200 IU/mL recombinant human IL-2 (PeproTech) and 50 ng/mL anti-human CD3 Antibody (BioLegend, 317302) were used for the first 48 hrs followed by culturing and passaging in media containing 200 IU/mL of IL-2.
PDXs from patients with lung cancer non responsive to anti-PD1 were exposed to no treatment, to mizoribine, or to either EDHB (left panel) or Viagra (right panel). […]

NC(=O)c1ncn([C@@H]2O[C@H](CO)[C@@H](O)[C@H]2O)c1O [Mizoribine, mizoribine]
tumor growth (4T1 breast cancer cells; 4T1 cells treated with mizoribine in vitro before injection into mammary pads, mizoribine alone): restricted tumor growth
tumor growth response in combination with anti-PD1 (4T1 breast cancer cells; 4T1 cells treated with mizoribine in vitro before injection, anti-PD1 intraperitoneal, mice unresponsive to anti-PD1): more significant response
human IFNγ in supernatant, explant alone ([1]; PDX explant alone treated with mizoribine 0.3 mM, no T cells): did not detect human IFNγ
IFNγ secretion by autologous CD8+ T cells, anti-PD1 plus mizoribine-treated explants ([1]; explants pre-treated with mizoribine 0.3 mM 10 hrs, nivolumab or pembrolizumab 20 µg/mL, 18 hours): significant elevation in secretion of IFN-γ
human IFNγ levels, explant plus autologous CD8+ T cells, no anti-PD1 ([1]; mizoribine-treated explants with autologous CD8+T cells): did not induce detectable IFNγ levels
